Like-named read-outs stand apart in the source and are kept apart here.
System: cancer cell lines
Test: Cancer cell proliferation activity (CellTiterGlo, 72 h)
Assay type: cell-based
Conditions: for IC50: 72 h, read-out: IC50
Summary of the method: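 Readout is CellTiterGlo luminescence after 72 h compound exposure (0.1% DMSO final), started one day post-seeding, at 37 °C.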

In the case of Nc1ccn([C@@H]2O[C@H](CO)[C@@H](O)C2(F)F)c(=O)n1 [gemcitabine, reference compound], the IC50 (5637 cell line (bladder)) is reported as 1.6 nM, the IC50 (CLS439 cell line (bladder)) is reported as 3.5 nM and the IC50 (HS729 cell line (muscle)) is reported as 3.6 nM. The IC50 (HSS78T cell line) was 3.8 nM, the IC50 (JAR cell line (placenta)) was 2 nM and the IC50 (SKMELS cell line) was 3.2 nM. The IC50 (Homo sapiens, 22Rv1, 72 h, 22RV1 cell line (prostate)) was 13 nM, the IC50 (Homo sapiens, 786-0, 72 h, 786O cell line (kidney)) was 4.1 nM and the IC50 (Homo sapiens, A204, 72 h, A204 cell line (muscle)) was 0.9 nM. It also gave an IC50 (Homo sapiens, A549, 72 h, A549 cell line) of 3.1 nM, an IC50 (Homo sapiens, A673, 72 h, A673 cell line (bone)) of 3.5 nM and an IC50 (Homo sapiens, A2780, 72 h, A2780 cell line (ovary)) of 2.4 nM. It also gave an IC50 (Homo sapiens, A-375, 72 h, A375 cell line (skin)) of 2.3 nM, an IC50 (Homo sapiens, A-431, 72 h, A431 cell line (skin)) of 2.3 nM and an IC50 (Homo sapiens, ACHN, ACHN cell line (kidney)) of 1.5 nM. It also gave an IC50 (Homo sapiens, ASPC1, 72 h, ASPC1 cell line (pancreas)) of 5.2 nM, an IC50 (Homo sapiens, BT-20, 72 h, BT20 cell line (breast)) of 7 nM and an IC50 (Homo sapiens, BXPC-3, 72 h, BXPC3 cell line (pancreas)) of 2.4 nM. The IC50 (Homo sapiens, C-33-A, C33A cell line (cervical)) was 4.4 nM, the IC50 (Homo sapiens, CAKI-1, 72 h, CAKI1 cell line (kidney)) was 2.7 nM and the IC50 (Homo sapiens, COLO 205, 72 h, COLO205 cell line (colon)) was 20.2 nM. The IC50 (Homo sapiens, COLO-678, 72 h, COLO678 cell line (colon)) was 5.3 nM, the IC50 (Homo sapiens, Ca-Ski, CASKI cell line (cervical)) was 5.9 nM and the IC50 (Homo sapiens, Caco-2, 72 h, CACO2 cell line (colon)) was 7 nM. The IC50 (Homo sapiens, Calu-6, 72 h, CALU6 cell line (lung)) was 6.1 nM, the IC50 (Homo sapiens, DLD-1, 72 h, DLD1 cell line (colon)) was 5.3 nM and the IC50 (Homo sapiens, DU-145, 72 h, DU145 cell line (prostate)) was 2.1 nM. For the same molecule, the IC50 (Homo sapiens, EFO-21, 72 h, EFO21 cell line (ovary)) was 1.9 nM, the IC50 (Homo sapiens, EJ-28, 72 h, EJ28 cell line (bladder)) was 2.1 nM and the IC50 (Homo sapiens, Granta-519, 72 h, GRANTA-519 cell line (hematological)) was 0.5 nM. For the same molecule, the IC50 (Homo sapiens, HCT-15, 72 h, HCT15 cell line (colon)) was 4.7 nM, the IC50 (Homo sapiens, HCT-116, 72 h, HCT116 cell line (colon)) was 2 nM and the IC50 (Homo sapiens, HEK293, 72 h, HEK293 cell line (kidney)) was 20.9 nM. For the same molecule, the IC50 (Homo sapiens, HL-60, 72 h, HL-60 cell line (hematological)) was 2.2 nM, the IC50 (Homo sapiens, HT-29, 72 h, HT29 cell line (colon)) was 3.5 nM and the IC50 (Homo sapiens, HT-1080, 72 h, HT1080 cell line (connective tissue)) was 1.7 nM. The IC50 (Homo sapiens, HeLa, HELA cell line (cervical)) was 6 nM, the IC50 (Homo sapiens, HepG2, 72 h, HEPG2 cell line (liver)) was 2 nM and the IC50 (Homo sapiens, IGROV-1, 72 h, IGROV1 cell line (ovary)) was 4.8 nM. It also gave an IC50 (Homo sapiens, IMR-90, 72 h, IMR.90 cell line) of 2.6 nM, an IC50 (Homo sapiens, J82, 72 h, J82 cell line (bladder)) of 5.1 nM and an IC50 (Homo sapiens, JEG-3, 72 h, JEG3 cell line (placenta)) of 5.3 nM. For the same molecule, the IC50 (Homo sapiens, JIMT-1, 72 h, JIMT1 cell line (breast)) was 0.9 nM, the IC50 (Homo sapiens, K562, 72 h, K-562 cell line (hematological)) was 14.2 nM and the IC50 (Homo sapiens, Kasumi 1, 72 h, KASUMI-1 cell line (hematological)) was 3.5 nM. It also gave an IC50 (Homo sapiens, L-363, 72 h, L-363 cell line (hematological)) of 3.4 nM, an IC50 (Homo sapiens, LoVo, LOVO cell line (colon)) of 2.3 nM and an IC50 (Homo sapiens, MCF7, 72 h, MCF7 cell line (breast)) of 4.1 nM. For the same molecule, the IC50 (Homo sapiens, MDA-MB-231, 72 h, MDAMB231 cell line (breast)) was 0.9 nM, the IC50 (Homo sapiens, MDA-MB-435, 72 h, MDAMB435 cell line (skin)) was 2.8 nM and the IC50 (Homo sapiens, MDA-MB-436, 72 h, MDAMB436 cell line (breast)) was 1.8 nM. The IC50 (Homo sapiens, MDA-MB-468, 72 h, MDAMB468 cell line (breast)) was 1.9 nM, the IC50 (Homo sapiens, MG-63, 72 h, MG63 cell line (bone)) was 4.8 nM and the IC50 (Homo sapiens, MHH-ES-1, 72 h, MHHES1 cell line (bone)) was 2 nM. The IC50 (Homo sapiens, MIA PaCa-2, 72 h, MIAPACA2 cell line (pancreas)) was 6.8 nM, the IC50 (Homo sapiens, MINO, MINO cell line (hematological)) was 0.3 nM and the IC50 (Homo sapiens, MV4-11, 72 h, MV4-11 cell line (hematological)) was 1.1 nM. It also gave an IC50 (Homo sapiens, NCI-H23, 72 h, NCI-H23 cell line (lung)) of 1.1 nM, an IC50 (Homo sapiens, NCI-H82, 72 h, NCIH82 cell line (lung)) of 7.6 nM and an IC50 (Homo sapiens, NCI-H292, 72 h, NCIH292 cell line (lung)) of 4.4 nM. For the same molecule, the IC50 (Homo sapiens, NCI-H460, 72 h, NCIH460 cell line (lung)) was 5 nM, the IC50 (Homo sapiens, OVCAR-3, 72 h, OVCAR3 cell line (ovary)) was 3.1 nM and the IC50 (Homo sapiens, OVCAR-4, 72 h, OVCAR4 cell line (ovary)) was 4.9 nM. For the same molecule, the IC50 (Homo sapiens, PANC-1, 72 h, PANC1 cell line (pancreas)) was 9.7 nM, the IC50 (Homo sapiens, PC-3, 72 h, PC3 cell line (prostate)) was 2.6 nM and the IC50 (Homo sapiens, PLC-PRF-5, 72 h, PLCPRF5 cell line (liver)) was 9.2 nM. For the same molecule, the IC50 (Homo sapiens, Panc1005, 72 h, PANC1005 cell line (pancreas)) was 7.9 nM, the IC50 (Homo sapiens, RD, RD cell line (muscle)) was 2.3 nM and the IC50 (Homo sapiens, Ramos, RAMOS cell line (hematological)) was 0.6 nM. It also gave an IC50 (Homo sapiens, SAOS-2, 72 h, SAOS2 cell line (bone)) of 0.5 nM, an IC50 (Homo sapiens, SF-268, 72 h, SF268 cell line (brain)) of 4.1 nM and an IC50 (Homo sapiens, SF-295, 72 h, SF295 cell line (brain)) of 3.3 nM. The IC50 (Homo sapiens, SK-BR-3, 72 h, SKBR3 cell line (breast)) was 0.6 nM, the IC50 (Homo sapiens, SK-HEP1, 72 h, SKHEP1 cell line (liver)) was 4.7 nM and the IC50 (Homo sapiens, SK-LMS-1, 72 h, SKLMS1 cell line (uterus)) was 4.1 nM. It also gave an IC50 (Homo sapiens, SK-MEL-28, 72 h, SKMEL28 cell line (skin)) of 4.3 nM, an IC50 (Homo sapiens, SK-N-AS, SKNAS cell line (brain)) of 3.6 nM and an IC50 (Homo sapiens, SK-N-SH, SKNSH cell line (brain)) of 3.3 nM. For the same molecule, the IC50 (Homo sapiens, SK-OV-3, 72 h, SKOV3 cell line (ovary)) was 23.7 nM, the IC50 (Homo sapiens, SNB-75, 72 h, SNB75 cell line (brain)) was 5.3 nM and the IC50 (Homo sapiens, SU-DHL10, 72 h, SU-DHL-10 cell line (hematological)) was 4.1 nM. It also gave an IC50 (Homo sapiens, SU-DHL-6, 72 h, SU-DHL-6 cell line (hematological)) of 6.8 nM, an IC50 (Homo sapiens, SW-620, 72 h, SW620 cell line (colon)) of 3 nM and an IC50 (Homo sapiens, T-24, 72 h, T24 cell line (bladder)) of 1.4 nM. It also gave an IC50 (Homo sapiens, TE-671, 72 h, TE671 cell line (muscle)) of 8.3 nM, an IC50 (Homo sapiens, THP-1, 72 h, THP-1 cell line (hematological)) of 1.1 nM and an IC50 (Homo sapiens, U2OS, U2OS cell line (bone)) of 5.7 nM. It also gave an IC50 (Homo sapiens, U-87 MG, U87MG cell line (brain)) of 1.5 nM, an IC50 (Homo sapiens, UMUC3, 72 h, UMUC3 cell line (bladder)) of 4.3 nM and an IC50 (Homo sapiens, UO-31, 72 h, UO31 cell line (kidney)) of 3.7 nM. The IC50 (Homo sapiens, WSU-NHL, WSU-NHL cell line (hematological)) was 4.5 nM, the IC50 (MT-3, 72 h, MT3 cell line (breast)) was 0.9 nM and the IC50 (NCI-H358M, NCIH358M cell line (lung)) was 3.5 nM. For the same molecule, the IC50 (PBMC, PBMC (hematological)) was 12300 nM, the IC50 (RD-ES, RDES cell line (bone)) was 3.7 nM and the “cytotoxicity against a panel of cell lines (waterfall plot)” value (panel of cancer and non-cancer cell lines, figure legends FIG. 1-3) was “indiscriminately cytotoxic”.

— patent US20250215039A1, “NUCLEOSIDES FOR TREATING CANCER” (PRIMEFOUR THERAPEUTICS, INC., priority 2022, published 2025)
